# Laboratory results published in ChEMBL document CHEMBL1201862, “PubChem BioAssay data set” (2004).
# Active and inactive are the calls of the source.
# Legend:
# [1] = inhibition of ADAM10 peptide cleavage – biochemical, FRET peptide substrate, recombinant human ADAM10, selectivity assay for ADAM17 exosite inhibitor project, dose response (AID 743259);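 also: ADAM10 enzyme cleaving a FRET peptide substrate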
# [2] = target: Disintegrin and metalloproteinase domain-containing protein 17 (Homo sapiens, UniProt P78536); assay: exosite inhibitors of ADAM17, dose response, biochemical (AID 743260)
# [3] = target: T1, Trace amine-associated receptor 1 (Homo sapiens, UniProt Q96RJ0); assay: Counterscreen for agonists of the human trace amine associated receptor 1 (hTAAR1): Fluorescence-based cell-based high throughput dose response assay to identify hTAAR1 agonist that also desensitize TAAR1 receptor response.; format: functional
# T1 sequence (Q96RJ0 whole entry): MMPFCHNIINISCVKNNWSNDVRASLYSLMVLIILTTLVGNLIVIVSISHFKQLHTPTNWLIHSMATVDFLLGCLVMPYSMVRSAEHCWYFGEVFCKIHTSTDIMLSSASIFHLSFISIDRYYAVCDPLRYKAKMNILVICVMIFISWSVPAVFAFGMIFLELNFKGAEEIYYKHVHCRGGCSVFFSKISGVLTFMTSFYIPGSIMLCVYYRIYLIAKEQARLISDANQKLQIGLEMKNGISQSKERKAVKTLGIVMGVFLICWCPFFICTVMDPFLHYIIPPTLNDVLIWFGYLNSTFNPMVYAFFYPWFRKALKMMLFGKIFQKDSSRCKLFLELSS
# cells [4] = format: functional, cell-based
# Cytochrome P450 2C9 = Cytochrome P450 2C9 (Homo sapiens, UniProt P11712)
# cells [5] = format: functional, cell-based; remark: listed apart in the source
# [6] = off-target signal loss in HeLa-CEM21 co-culture – HeLa F-luc CTL cells, cherry-picked, counter-screen for HIV-1 Env fusion inhibitor project, dose response (AID 652040); format: functional, cell-based;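 also: potency for signal decrease marking cytotoxic or nonspecific inhibition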
# [7] = target: T1, Trace amine-associated receptor 1; assay: Fluorescence-based cell-based high throughput dose response assay to identify agonists of the human trace amine associated receptor 1 (TAAR1).; format: functional
# [8] = blockers of HIV-1 envelope-mediated cell-cell fusion – cherry-pick, dose response (AID 652057); format: functional, cell-based
# [9] = PAX5 cellular inhibition readout – cell-based, plate reader, dry powder samples, selectivity assay for PAX8 inhibitor project, dose response (AID 743047); format: functional;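 also: HEK293 cells carrying a Pax5 driven CD19 promoter luciferase reporter; potency of inhibitors that lower reporter luminescence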
# [10] = PAX8-dependent cell viability loss – plate reader, dry powder, dose response (AID 743049); format: functional, cell-based
# Paired box protein Pax-8 = Paired box protein Pax-8 (Homo sapiens, UniProt Q06710); assay: PAX8 transcriptional activity inhibition in RMG-I – RMG-I cells, luciferase, cherry-pick, dose response (AID 687027); format: functional, cell-based;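 also: luciferase reporter driven by Pax8 target thyroperoxidase promoter measured by SteadyGlo luminescence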
# [11] = COV362 cell viability loss – plate reader, dry powder, SA12, cytotoxicity control for PAX8 inhibitor project, dose response (AID 743144); format: functional, cell-based
# [12] = inhibitors acting on PAX2 in cells – cell-based, plate reader, dry powder samples, selectivity assay for PAX8 inhibitor project, dose response (AID 743048); format: functional;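 also: HEK293 cells carrying a WT1 promoter luciferase reporter driven by expressed Pax2; potency is for inhibition of Pax2 driven reporter signal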
# [13] = COV434 cell viability loss – plate reader, dry powder, SA7, cytotoxicity control for PAX8 inhibitor project, dose response (AID 743145); format: functional, cell-based
# Major prion protein = Major prion protein (Homo sapiens, UniProt P04156); format: functional, cell-based
# cells [14] = assay: cells
# [15] = target: T2, Heat shock factor protein 1 (Mus musculus, UniProt P38532); assay: enhancement of HSF1-driven luciferase signal – cell-based, NIH3T3, luminescence, dose retest, confirmation (AID 435004); format: functional;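 also: stress induced by proteasome inhibitor MG132 added 30 min after compound; luciferase reporter driven by HSF1 response element in NIH3T3 cells; actives raise luminescence as potentiators of the MG132 stress response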
# T2 sequence (P38532 whole entry): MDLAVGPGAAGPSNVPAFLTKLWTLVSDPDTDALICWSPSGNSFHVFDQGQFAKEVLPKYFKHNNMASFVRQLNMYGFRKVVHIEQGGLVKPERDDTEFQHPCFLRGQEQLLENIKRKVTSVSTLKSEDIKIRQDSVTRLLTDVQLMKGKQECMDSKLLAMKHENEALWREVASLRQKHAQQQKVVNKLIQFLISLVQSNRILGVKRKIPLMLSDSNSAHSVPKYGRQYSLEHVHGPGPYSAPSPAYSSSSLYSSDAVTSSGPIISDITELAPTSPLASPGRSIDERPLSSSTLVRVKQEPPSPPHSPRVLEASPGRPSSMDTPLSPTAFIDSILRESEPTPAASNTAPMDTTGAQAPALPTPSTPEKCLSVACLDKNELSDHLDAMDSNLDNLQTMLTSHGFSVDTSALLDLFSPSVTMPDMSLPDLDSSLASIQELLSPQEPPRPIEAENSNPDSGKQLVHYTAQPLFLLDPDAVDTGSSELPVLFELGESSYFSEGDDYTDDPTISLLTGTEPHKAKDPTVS
# [16] = Luminescence Cell-Based Dose Confirmation to Identify Activators of 5'UTR Stem-Loop Driven Alpha-Synuclein mRNA Translation in H4 Neuroglioblastoma Cells. [Related pubchem assays: 1829 (Project Summary), 1814 (Primary HTS)]; format: functional
# [17] = Luminescence Cell-Based Dose Response to Identify Activators of Luciferase Translation or Activity in H4-C Neuroglioblastoma Cells. [Related pubchem assays: 1829 (Project Summary), 1814 (Primary HTS)]; format: functional
# H4 = assay: Luminescence Cell-Based Dose Response HTS to Identify Activators of 5'UTR Stem-Loop Driven Prion Protein mRNA Translation in H4 Neuroglioblastoma Cells. [Related pubchem assays: 1829 (Project Summary), 1814 (Primary HTS)]; format: functional; details: Homo sapiens
# [18] = Luminescence Cell-Based Dose Response to Identify Activators of 5'UTR Stem-Loop Driven Prion Protein mRNA Translation in H4-C Neuroglioblastoma Cells. [Related pubchem assays: 1829 (Project Summary), 1814 (Primary HTS)]; format: functional
# [19] = Luminescence Cell-Based Dose Response HTS to Identify Activators of Luciferase Translation or Activity in H4 […] Cells. [Related pubchem assays: 1829 (Project Summary), 1814 (Primary HTS)]; format: functional
# Albumin = Albumin (Bos taurus, UniProt P02769); assay: Counterscreen for inhibitors of T-cell receptor (TCR)-CD3 interaction: Fluorescence-based biochemical high throughput dose response assay to identify inhibitors of T-cell receptor (TCR)-CD3 interaction using a TAMRA-labeled BSA probe.; format: functional
# [20] = target: FAD-linked sulfhydryl oxidase ALR (Homo sapiens, UniProt P55789); assay: ALR-catalysed DTT oxidation blockers – biochemical, H2O2 detection, luminescence, cherry-pick, dose response (AID 493248)
# [21] = target: T3, Carboxy-terminal domain RNA polymerase II polypeptide A small phosphatase 1 (Homo sapiens, UniProt Q9GZU7); assay: CTDSP1 inhibitors, concentration-response, biochemical, absorbance readout, ultra-high-throughput screen actives (AID 540297); format: functional
# T3 sequence (Q9GZU7 whole entry): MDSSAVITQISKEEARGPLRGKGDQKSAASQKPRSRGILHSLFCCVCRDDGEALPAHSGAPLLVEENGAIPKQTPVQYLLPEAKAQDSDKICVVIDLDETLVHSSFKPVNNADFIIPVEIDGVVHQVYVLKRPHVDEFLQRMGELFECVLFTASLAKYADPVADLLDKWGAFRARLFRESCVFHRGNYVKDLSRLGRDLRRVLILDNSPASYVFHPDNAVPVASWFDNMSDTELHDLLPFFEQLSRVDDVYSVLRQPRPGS
# [22] = target: Mitogen-activated protein kinase 10 (Homo sapiens, UniProt P53779); assay: Dose response biochemical screening assay for inhibitors of c-Jun N-Terminal Kinase 3 (JNK3). [Related pubchem assays: 746 ]
# [23] = target: T4, Ubiquitin-conjugating enzyme E2 N (Homo sapiens, UniProt P61088); format: functional;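 also: Dose-response confirmation in a TR-FRET assay detecting UBC13-driven polyubiquitin chain formation, inhibition measured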
# T4 sequence (P61088 whole entry): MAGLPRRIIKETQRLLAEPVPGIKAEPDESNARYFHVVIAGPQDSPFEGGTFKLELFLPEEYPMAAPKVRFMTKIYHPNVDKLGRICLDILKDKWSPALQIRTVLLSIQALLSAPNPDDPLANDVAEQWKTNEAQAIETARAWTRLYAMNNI
# [24] = viability loss in CEM21 cells – cell-based, CellTiter-Glo luminescence, cherry-picked, cytotoxicity control for viral fusion inhibitor project, dose response (AID 652042); format: functional;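 also: potency for signal decrease meaning cytotoxicity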
# [25] = HIV-1 AD8 envelope cell-cell fusion blockers – cherry-pick, dose response (AID 652062); format: functional, cell-based;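 also: luciferase signal from cell-cell fusion driven by HIV-1 clade B AD8 Env; potency is for inhibitors of fusion seen as a drop in luminescence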
# [26] = target: COUP transcription factor 2 (Homo sapiens, UniProt P24468); assay: Luminescence-based cell-based high throughput dose response assay to identify inhibitors of COUP-TFII (NR2F2).; format: functional;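 also: HEK293 cells transiently cotransfected with COUP-TFII expression vector and reporter; luciferase reporter luminescence driven by COUP-TFII from the pX2-168 reporter plasmid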
# [27] = target: T5, Polyadenylate-binding protein 1 (Homo sapiens, UniProt P11940); assay: MLLE domain peptide-binding blockers, IC50 – biochemical, fluorescence polarization, FITC-PAM2 peptide, dose response (AID 602259); format: functional; details: read-out: IC50_Mean
# [28] = target: Heat shock protein HSP 90-alpha (Homo sapiens, UniProt P07900); assay: Luminescence-based dose response biochemical high throughput screening assay for inhibitors of the Heat Shock Protein 90 (HSP90). [Related pubchem assays: 1831 (Summary AID.), 1846 (Confirmation screen.), 1789 (Primary screen.)]
# [29] = target: T5, Polyadenylate-binding protein 1; assay: MLLE binding blockers, Cy5 peptide tracer – biochemical, fluorescence polarization, Cy5-PAM2 peptide, secondary, miRNA deadenylation inhibitor project, dose response (AID 602260); format: functional; details: read-out: IC50_Mean
# [30] = T. cruzi growth inhibition in host cells, dose response, cell-based, plate reader, dry powder, set 2 (AID 652275); format: functional
# Streptokinase A = target: T6, Streptokinase A (Streptococcus pyogenes serotype M1, UniProt P10520); assay: viability-normalized secreted streptokinase activity reduction – plasminogen activation absorbance, OD405, dose response (AID 1914); format: functional, Streptococcus pyogenes M1 GAS;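 also: secreted streptokinase activity via plasminogen activation per viability signal from cell pellet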
# T6 sequence (P10520 whole entry): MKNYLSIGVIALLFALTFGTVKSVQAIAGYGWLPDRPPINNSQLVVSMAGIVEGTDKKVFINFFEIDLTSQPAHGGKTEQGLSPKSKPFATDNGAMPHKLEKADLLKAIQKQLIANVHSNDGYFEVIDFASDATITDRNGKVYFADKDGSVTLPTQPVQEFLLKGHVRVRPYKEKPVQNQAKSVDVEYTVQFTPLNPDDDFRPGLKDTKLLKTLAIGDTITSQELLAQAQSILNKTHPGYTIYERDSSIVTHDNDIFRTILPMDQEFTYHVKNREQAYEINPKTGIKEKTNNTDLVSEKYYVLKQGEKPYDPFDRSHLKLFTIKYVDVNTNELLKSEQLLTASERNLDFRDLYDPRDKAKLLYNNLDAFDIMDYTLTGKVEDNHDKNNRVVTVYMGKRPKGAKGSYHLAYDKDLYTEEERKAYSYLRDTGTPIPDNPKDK
# [31] = target: Aryl hydrocarbon receptor (Homo sapiens, UniProt P35869); assay: Luminescence-based cell-based high throughput dose response assay for activators of the Aryl Hydrocarbon Receptor (AHR). [Related pubchem assays: 2796 (Primary screen (AHR activators in singlicate)), 2845 (Confirmation screen (AHR activators in triplicate)), 434939 (Counterscreen (PXR activators in triplicate)), 2804 (Summary (AHR activators))]; format: ADME
smiles,measurement,setting,value
Cc1nn(Cc2ccccc2Cl)c2sc(C(=O)NCc3ccc4c(c3)OCO4)cc12,IC50,[1],> 69.5 µM (inactive)
same,IC50,[2],> 69.5 µM (inactive)
Cc1cccc(/C=N\Nc2cnnc(O)c2Cl)c1,IC50,[3],7.33 µM (active)
same,EC50,cells [4],> 29.9 µM (inactive)
same,AC50,Cytochrome P450 2C9,28.2 µM (inconclusive)
same,IC50,cells [5],> 29.9 µM (inactive)
same,AC50,[6],0.76 µM (active)
same,EC50,[7],1.28 µM (active)
same,AC50,[8],1.06 µM (active)
C[C@H](CO)N1C[C@H](C)[C@@H](CN(C)Cc2ccc(-c3ccccc3)cc2)Oc2ccc(NS(=O)(=O)c3ccccc3)cc2CC1=O,AC50,[9],14.8 µM (active)
same,AC50,[10],30.4 µM (active)
same,AC50,Paired box protein Pax-8,17.4 µM (active)
same,AC50,[11],26.3 µM (active)
same,AC50,[12],8 µM (active)
same,AC50,[13],37.2 µM (active)
O=c1[nH]c(=O)n(Cc2ccco2)c2c1C(C(F)(F)F)(C(F)(F)F)NC(CCc1ccccc1)=N2,IC50,Major prion protein,8.51 µM (active)
same,IC50,cells [14],54.4 µM (inactive)
Cc1c(CNCCc2ccccc2)c(C(=O)O)c(C)n1-c1ccccc1,IC50,[3],8.17 µM (active)
same,EC50,cells [4],> 29.9 µM (inactive)
same,IC50,cells [5],> 29.9 µM (inactive)
same,EC50,[7],1.78 µM (active)
same,EC50,[15],> 260 µM (inactive)
COc1ccc(C(=O)NNC(=O)CSc2nc(C(C)C)nc3ccccc23)cc1,IC50,Major prion protein,1.98 µM (active)
same,IC50,cells [14],> 138 µM (inactive)
CC(C)(C)c1ccc(OC(=O)N2CCCCC2)cc1,EC50,[16],1.13 µM (active)
same,EC50,[17],0.364 µM (active)
same,EC50,H4,44.5 µM (active)
same,EC50,[18],1.01 µM (active)
same,EC50,[19],< 0.1 µM (active)
COC(=O)c1cc(O)c(O)c(O)c1 [GALLIC ACID METHYL ESTER],IC50,Albumin,> 94.3 µM (inactive)
same,AC50,[20],4.94 µM (active)
O=C(CCCCCn1c(SCc2ccncc2)nc2ccccc2c1=O)NCc1ccco1,IC50,[21],35.8 µM (active)
same,IC50,[22],73.1 µM (not active)
same,IC50,[23],> 20 µM (inactive)
COC(=O)c1cccc(Cn2nnc3ccccc3c2=O)c1,IC50,[22],78.8 µM (not active)
N#CCSc1nnc(-c2sc3ccccc3c2Cl)o1,AC50,[24],46.4 µM (active)
same,AC50,[25],6.32 µM (active)
same,AC50,[6],> 70 µM (inactive)
same,IC50,[26],12 µM (inactive)
CCN(CC)c1ccc(SS(=O)(=O)O)cc1,AC50,Cytochrome P450 2C9,5.01 µM (inconclusive)
same,IC50,[27],> 66 µM (inactive)
same,IC50,[28],4.53 µM (active)
same,IC50,[29],> 66 µM (inactive)
CN(C)C(=O)c1cccc(-c2ccc([C@H]3[C@@H](CO)N4CCCCN(C(=O)C5CCCC5)C[C@@H]34)cc2)c1,AC50,[30],0.691 µM (active)
Cc1ccc(NC(=S)c2nc3ccccc3[nH]2)c(C)c1,EC50,Streptokinase A,> 150 µM (not active)
same,EC50,[31],3.65 µM (active)
CC(C)N1C[C@@H](CN(C)Cc2ccc(Cl)cc2)Oc2c(NC(=O)c3ccccc3)cccc2C1=O,AC50,[30],1.49 µM (active)
